Three compounds from ChEMBL document CHEMBL5030507, “Structure-Based Design of a Selective Class I Histone Deacetylase (HDAC) Near-Infrared (NIR) Probe for Epigenetic Regulation Detection in Triple-Negative Breast Cancer (TNBC)” (J Med Chem, 2021) can be followed below.

The structures appear in SMILES notation.

One series deals with Histone deacetylase 1 (Homo sapiens, UniProt Q13547). The series can be described thus: Inhibition of recombinant human C-terminal FLAG/His-tagged HDAC1 (1 to 482 residues) expressed in Sf9 insect cells using fluorometric substrate measured after 60 mins by FRET assay.
The target of series [1] is Histone deacetylase 3/Nuclear receptor corepressor 2 (HDAC3/NCoR2) (Homo sapiens, UniProt O15379). The series can be described thus: Inhibition of C-terminal His-tagged recombinant human HDAC3 (1 to 428 residues)/N-terminal GST-tagged recombinant human NCoR2 (395 to 489 residues) co-expressed in baculovirus infected Sf9 cells using fluorometric substrate measured after 60 mins by FRET assay.

A further series addresses Histone deacetylase 2 (Homo sapiens, UniProt Q92769). The series can be described thus: biochemical. In kind it is cell-based, Sf9.
The next series deals with T1, Histone deacetylase 8 (Homo sapiens, UniProt Q9BY41).
T1 sequence (Q9BY41 whole entry): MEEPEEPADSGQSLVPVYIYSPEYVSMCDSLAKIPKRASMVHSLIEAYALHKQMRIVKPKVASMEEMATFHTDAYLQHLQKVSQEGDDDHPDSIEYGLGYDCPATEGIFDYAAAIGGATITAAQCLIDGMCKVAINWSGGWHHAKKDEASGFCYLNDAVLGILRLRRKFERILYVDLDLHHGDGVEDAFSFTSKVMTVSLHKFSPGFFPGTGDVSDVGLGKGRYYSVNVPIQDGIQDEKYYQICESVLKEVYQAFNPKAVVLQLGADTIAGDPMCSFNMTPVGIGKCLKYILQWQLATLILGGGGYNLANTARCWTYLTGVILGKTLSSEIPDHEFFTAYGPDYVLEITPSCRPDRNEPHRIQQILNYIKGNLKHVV
The series can be described thus: Inhibition of recombinant human full length C-terminal His-tagged HDAC8 expressed in baculovirus infected Sf9 insect cells using fluorometric substrate measured after 60 mins by FRET assay.

Series [2] addresses T2, Protein deacetylase HDAC6 (Homo sapiens, UniProt Q9UBN7).
T2 sequence (Q9UBN7 whole entry): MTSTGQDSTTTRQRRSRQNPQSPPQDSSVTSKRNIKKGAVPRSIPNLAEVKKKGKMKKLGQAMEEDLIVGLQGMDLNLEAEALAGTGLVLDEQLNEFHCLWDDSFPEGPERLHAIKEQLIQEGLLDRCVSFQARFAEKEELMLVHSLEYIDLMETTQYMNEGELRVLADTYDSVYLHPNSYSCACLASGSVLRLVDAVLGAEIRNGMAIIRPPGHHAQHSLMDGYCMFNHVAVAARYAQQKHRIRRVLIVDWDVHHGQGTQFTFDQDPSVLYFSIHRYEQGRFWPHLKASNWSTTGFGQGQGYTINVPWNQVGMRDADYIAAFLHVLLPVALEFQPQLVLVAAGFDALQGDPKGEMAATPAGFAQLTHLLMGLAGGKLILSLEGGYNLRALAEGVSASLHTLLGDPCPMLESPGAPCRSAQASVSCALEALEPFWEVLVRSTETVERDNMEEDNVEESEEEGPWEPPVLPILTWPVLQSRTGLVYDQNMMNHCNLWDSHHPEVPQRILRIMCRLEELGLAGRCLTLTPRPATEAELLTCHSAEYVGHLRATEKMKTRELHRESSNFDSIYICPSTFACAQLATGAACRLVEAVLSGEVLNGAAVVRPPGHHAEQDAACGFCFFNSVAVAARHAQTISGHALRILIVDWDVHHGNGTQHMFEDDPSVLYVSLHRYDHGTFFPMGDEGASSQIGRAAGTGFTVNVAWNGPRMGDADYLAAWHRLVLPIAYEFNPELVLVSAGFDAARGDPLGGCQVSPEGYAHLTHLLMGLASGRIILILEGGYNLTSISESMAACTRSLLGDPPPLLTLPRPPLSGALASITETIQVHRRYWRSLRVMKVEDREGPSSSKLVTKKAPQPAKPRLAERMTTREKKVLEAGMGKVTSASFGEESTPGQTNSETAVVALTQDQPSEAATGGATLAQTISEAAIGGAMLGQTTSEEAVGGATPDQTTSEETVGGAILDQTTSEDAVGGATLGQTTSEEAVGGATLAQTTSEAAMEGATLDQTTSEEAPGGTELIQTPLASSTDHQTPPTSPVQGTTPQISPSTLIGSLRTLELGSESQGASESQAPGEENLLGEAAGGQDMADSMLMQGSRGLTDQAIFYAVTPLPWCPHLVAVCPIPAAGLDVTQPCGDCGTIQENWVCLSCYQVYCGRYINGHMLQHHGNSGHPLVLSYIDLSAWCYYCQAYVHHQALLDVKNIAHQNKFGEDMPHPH
The series can be described thus: Inhibition of recombinant human full length N-terminal GST-tagged HDAC6 expressed in Sf9 cells using fluorogenic substrate measured after 60 mins by FRET assay.

Series [3] concerns the target T3, Polyamine deacetylase HDAC10 (Homo sapiens, UniProt Q969S8).
T3 sequence (Q969S8 whole entry): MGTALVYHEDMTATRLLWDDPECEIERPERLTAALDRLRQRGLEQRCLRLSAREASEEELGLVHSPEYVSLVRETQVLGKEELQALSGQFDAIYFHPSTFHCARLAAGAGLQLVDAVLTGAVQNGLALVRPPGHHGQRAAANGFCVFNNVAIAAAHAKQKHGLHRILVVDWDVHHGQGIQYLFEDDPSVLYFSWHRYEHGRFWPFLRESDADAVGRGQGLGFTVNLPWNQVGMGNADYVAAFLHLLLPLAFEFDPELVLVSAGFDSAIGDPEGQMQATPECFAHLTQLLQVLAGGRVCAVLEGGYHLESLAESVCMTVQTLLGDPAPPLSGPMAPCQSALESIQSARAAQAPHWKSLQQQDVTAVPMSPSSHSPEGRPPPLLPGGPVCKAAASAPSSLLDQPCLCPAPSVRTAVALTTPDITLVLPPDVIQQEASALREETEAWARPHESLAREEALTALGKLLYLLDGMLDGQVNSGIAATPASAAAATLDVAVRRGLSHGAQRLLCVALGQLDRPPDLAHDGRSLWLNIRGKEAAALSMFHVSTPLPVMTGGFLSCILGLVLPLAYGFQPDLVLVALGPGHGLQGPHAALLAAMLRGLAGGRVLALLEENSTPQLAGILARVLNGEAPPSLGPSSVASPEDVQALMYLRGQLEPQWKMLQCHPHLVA
The series can be described thus: Inhibition of recombinant human N-terminal FLAG tagged HDAC10 (2 to 631 residues) expressed in baculovirus infected Sf9 insect cells using fluorogenic substrate measured after 60 mins by FRET assay.

In another series the test system is MDA-MB-231. Nature of the series: Antiproliferative activity against triple-negative human MDA-MB-231 cells assessed as cell growth inhibition incubated for 72 hrs by CCK8 assay. In kind it is functional. In general terms: Tetrazolium dyes change colour on reduction, which living cells bring about.
Series [4] in a line: Cytotoxicity against human WI-38 cells assessed as cell growth inhibition incubated for 72 hrs by CCK8 assay. In kind it is cell-based.
Series [5] in a line: Selectivity index, ratio of GI50 for cytotoxicity against human WI-38 cells to GI50 for antiproliferative activity against triple-negative human MDA-MB-231 cells. In kind it is toxicity, cell-based. The following applies: WI-38 cells versus MDA-MB-231 cells, read-out: RatioGI50.
Series [6] is described as follows: Drug distribution in NOD-SCID mouse lung xenografted with triple negative MDA-MB-231 cells at 3 nmol, iv measured 24 hrs post infection by NRI fluorescence imaging analysis. The following applies: in vivo. In kind it is ADME, organism-based.
Series [7] in a line: Drug uptake in tumor of athymic nude mouse xenografted with human MDA-MB-231 cells assessed as reduction in tumor to normal tissue ratio at 3 nmol, iv in presence of (12Z,7S,10S)-7- (4-Aminobutyl)-4-ethylidene-10-((E)-4-(heptyldisulfaneyl)but-1-en-1-yl)-9-oxa-3,6,13-triaza-1(4,2)-thiazolacyclotetradecaphane-2,5,8,12-tetraone measured up to 48 hrs by epifluorescence analysis relative to control. In kind it is ADME, organism-based, Neoplasm. The following applies: in vivo. On the technique in general: In xenograft studies the graft and the host belong to different species.

A further series concerns the target Histone deacetylase. The series can be described thus: Inhibition of recombinant HDAC in human HeLa nuclear extracts using fluorogenic substrate measured after 60 mins by FRET assay.
Series [8] is described as follows: Drug distribution in triple negative human MDA-MB-231 cells expressing class 1 HDACs assessed as accumulation in nucleus by measuring colocalization of Cy5.5 signal measured for 60 mins by DAPI staining based confocal microscopic analysis. In kind it is ADME, cell-based. The following applies: mda-mb-231, 1 h.
Series [9] is described as follows: Drug uptake in tumor of athymic nude mouse xenografted with human MDA-MB-231 cells at 3 nmol, iv measured 4 hrs post infection by epifluorescence analysis. In kind it is ADME, organism-based, Neoplasm. The following applies: in vivo.
The nature of series [10]: Drug uptake in tumor of athymic nude mouse xenografted with human MDA-MB-231 cells at 3 nmol, iv pretreated with (12Z,7S,10S)-7- (4-Aminobutyl)-4-ethylidene-10-((E)-4-(heptyldisulfaneyl)but-1-en-1-yl)-9-oxa-3,6,13-triaza-1(4,2)-thiazolacyclotetradecaphane-2,5,8,12-tetraone followed by compound addition and measured up to 48 hrs by epifluorescence analysis. The following applies: in vivo. In kind it is ADME, organism-based, Neoplasm.

Series [11] can be described thus: Drug uptake in tumor of athymic nude mouse xenografted with human MDA-MB-231 cells at 3 nmol, iv pretreated with SAHA for 3 days followed by compound addition and measured up to 48 hrs by epifluorescence analysis. In kind it is ADME, organism-based, Neoplasm. The following applies: in vivo.
Series [12] in a line: Drug uptake in triple negative human MDA-MB-231 cells overexpressing class 1 HDACs at 1.5 uM in presence of (12Z,7S,10S)-7- (4-Aminobutyl)-4-ethylidene-10-((E)-4-(heptyldisulfaneyl)but-1-en-1-yl)-9-oxa-3,6,13-triaza-1(4,2)-thiazolacyclotetradecaphane-2,5,8,12-tetraone measured after 60 mins by DAPI staining based confocal microscopic analysis. In kind it is ADME, cell-based. The following applies: mda-mb-231, 1 h.

The species entered for a further series is Homo sapiens. Nature of the series: Selectivity index, ratio of IC50 for inhibition of recombinant HDAC in human HeLa nuclear extracts to IC50 for inhibition of recombinant human C-terminal FLAG/His-tagged HDAC1 (1 to 482 residues) expressed in Sf9 insect cells.
Series [13] in a line: Biodistribution in tumor of athymic nude mouse xenografted with human MDA-MB-231 cells assessed as fluorescence intensity at 3 nmol, iv measured 48 hrs post infection by epifluorescence analysis. In kind it is ADME, organism-based, Neoplasm. Conditions: in vivo; call rule not given here.
Series [14] can be described thus: Biodistribution in tumor of athymic nude mouse xenografted with human MDA-MB-231 cells assessed as fluorescence intensity at 3 nmol, iv pretreated with (12Z,7S,10S)-7- (4-Aminobutyl)-4-ethylidene-10-((E)-4-(heptyldisulfaneyl)but-1-en-1-yl)-9-oxa-3,6,13-triaza-1(4,2)-thiazolacyclotetradecaphane-2,5,8,12-tetraone followed by compound addition and measured after 48 hrs by epifluorescence analysis. Conditions: in vivo. In kind it is ADME, organism-based, Neoplasm.

The nature of series [15]: Biodistribution in tumor of athymic nude mouse xenografted with human MDA-MB-231 cells assessed as fluorescence intensity at 3 nmol, iv pretreated with SAHA for 3 days followed by compound addition and measured up to 48 hrs by epifluorescence analysis. In kind it is ADME, organism-based, Neoplasm. Conditions: in vivo.
Series [16] in a line: Biodistribution in kidney of athymic nude mouse xenografted with human MDA-MB-231 cells assessed as fluorescence intensity at 3 nmol, iv measured 48 hrs post infection by epifluorescence analysis. In kind it is ADME, organism-based. The following applies: in vivo.
Series [17] in a line: Drug distribution in NOD-SCID mouse lung xenografted with triple negative MDA-MB-231 cells assessed as accumulation in metastatic lungs by measuring increase in fluorescence intensity at 3 nmol, iv measured 24 hrs post infection by NRI fluorescence imaging analysis (Rvb= 2.2+/- 0.5 10^9/s/cm2). In kind it is ADME, organism-based. The following applies: in vivo.

Chain of Histone deacetylase 1 (Q13547 whole entry, the tested form may be a part): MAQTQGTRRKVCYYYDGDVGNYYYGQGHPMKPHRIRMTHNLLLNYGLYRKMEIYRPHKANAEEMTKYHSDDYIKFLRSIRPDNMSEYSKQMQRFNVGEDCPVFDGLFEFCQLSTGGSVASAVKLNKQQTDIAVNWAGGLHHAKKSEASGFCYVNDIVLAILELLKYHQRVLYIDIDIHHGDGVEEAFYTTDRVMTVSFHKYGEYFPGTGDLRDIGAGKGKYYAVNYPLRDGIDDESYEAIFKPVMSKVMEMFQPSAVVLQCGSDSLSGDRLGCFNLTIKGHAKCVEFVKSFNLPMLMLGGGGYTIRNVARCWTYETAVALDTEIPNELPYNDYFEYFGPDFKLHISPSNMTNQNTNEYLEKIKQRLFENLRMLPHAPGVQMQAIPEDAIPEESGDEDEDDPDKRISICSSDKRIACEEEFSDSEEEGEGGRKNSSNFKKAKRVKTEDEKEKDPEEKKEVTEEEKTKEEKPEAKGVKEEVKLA
Chain of Histone deacetylase 3/Nuclear receptor corepressor 2 (HDAC3/NCoR2) (O15379 whole entry, the tested form may be a part): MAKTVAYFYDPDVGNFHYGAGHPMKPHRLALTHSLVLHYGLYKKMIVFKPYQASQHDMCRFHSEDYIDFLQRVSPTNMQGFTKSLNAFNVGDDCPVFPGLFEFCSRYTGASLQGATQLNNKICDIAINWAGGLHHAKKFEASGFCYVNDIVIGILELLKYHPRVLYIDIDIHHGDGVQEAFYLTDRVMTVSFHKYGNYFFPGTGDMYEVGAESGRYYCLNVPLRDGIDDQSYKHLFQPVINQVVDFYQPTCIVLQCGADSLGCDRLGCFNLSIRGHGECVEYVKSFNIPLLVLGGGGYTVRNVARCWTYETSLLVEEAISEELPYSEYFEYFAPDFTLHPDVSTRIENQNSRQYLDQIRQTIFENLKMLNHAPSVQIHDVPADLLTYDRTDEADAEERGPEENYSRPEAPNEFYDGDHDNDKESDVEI
Chain of Histone deacetylase 3/Nuclear receptor corepressor 2 (HDAC3/NCoR2) (Q9Y618 whole entry, further chain, the tested form may be a part): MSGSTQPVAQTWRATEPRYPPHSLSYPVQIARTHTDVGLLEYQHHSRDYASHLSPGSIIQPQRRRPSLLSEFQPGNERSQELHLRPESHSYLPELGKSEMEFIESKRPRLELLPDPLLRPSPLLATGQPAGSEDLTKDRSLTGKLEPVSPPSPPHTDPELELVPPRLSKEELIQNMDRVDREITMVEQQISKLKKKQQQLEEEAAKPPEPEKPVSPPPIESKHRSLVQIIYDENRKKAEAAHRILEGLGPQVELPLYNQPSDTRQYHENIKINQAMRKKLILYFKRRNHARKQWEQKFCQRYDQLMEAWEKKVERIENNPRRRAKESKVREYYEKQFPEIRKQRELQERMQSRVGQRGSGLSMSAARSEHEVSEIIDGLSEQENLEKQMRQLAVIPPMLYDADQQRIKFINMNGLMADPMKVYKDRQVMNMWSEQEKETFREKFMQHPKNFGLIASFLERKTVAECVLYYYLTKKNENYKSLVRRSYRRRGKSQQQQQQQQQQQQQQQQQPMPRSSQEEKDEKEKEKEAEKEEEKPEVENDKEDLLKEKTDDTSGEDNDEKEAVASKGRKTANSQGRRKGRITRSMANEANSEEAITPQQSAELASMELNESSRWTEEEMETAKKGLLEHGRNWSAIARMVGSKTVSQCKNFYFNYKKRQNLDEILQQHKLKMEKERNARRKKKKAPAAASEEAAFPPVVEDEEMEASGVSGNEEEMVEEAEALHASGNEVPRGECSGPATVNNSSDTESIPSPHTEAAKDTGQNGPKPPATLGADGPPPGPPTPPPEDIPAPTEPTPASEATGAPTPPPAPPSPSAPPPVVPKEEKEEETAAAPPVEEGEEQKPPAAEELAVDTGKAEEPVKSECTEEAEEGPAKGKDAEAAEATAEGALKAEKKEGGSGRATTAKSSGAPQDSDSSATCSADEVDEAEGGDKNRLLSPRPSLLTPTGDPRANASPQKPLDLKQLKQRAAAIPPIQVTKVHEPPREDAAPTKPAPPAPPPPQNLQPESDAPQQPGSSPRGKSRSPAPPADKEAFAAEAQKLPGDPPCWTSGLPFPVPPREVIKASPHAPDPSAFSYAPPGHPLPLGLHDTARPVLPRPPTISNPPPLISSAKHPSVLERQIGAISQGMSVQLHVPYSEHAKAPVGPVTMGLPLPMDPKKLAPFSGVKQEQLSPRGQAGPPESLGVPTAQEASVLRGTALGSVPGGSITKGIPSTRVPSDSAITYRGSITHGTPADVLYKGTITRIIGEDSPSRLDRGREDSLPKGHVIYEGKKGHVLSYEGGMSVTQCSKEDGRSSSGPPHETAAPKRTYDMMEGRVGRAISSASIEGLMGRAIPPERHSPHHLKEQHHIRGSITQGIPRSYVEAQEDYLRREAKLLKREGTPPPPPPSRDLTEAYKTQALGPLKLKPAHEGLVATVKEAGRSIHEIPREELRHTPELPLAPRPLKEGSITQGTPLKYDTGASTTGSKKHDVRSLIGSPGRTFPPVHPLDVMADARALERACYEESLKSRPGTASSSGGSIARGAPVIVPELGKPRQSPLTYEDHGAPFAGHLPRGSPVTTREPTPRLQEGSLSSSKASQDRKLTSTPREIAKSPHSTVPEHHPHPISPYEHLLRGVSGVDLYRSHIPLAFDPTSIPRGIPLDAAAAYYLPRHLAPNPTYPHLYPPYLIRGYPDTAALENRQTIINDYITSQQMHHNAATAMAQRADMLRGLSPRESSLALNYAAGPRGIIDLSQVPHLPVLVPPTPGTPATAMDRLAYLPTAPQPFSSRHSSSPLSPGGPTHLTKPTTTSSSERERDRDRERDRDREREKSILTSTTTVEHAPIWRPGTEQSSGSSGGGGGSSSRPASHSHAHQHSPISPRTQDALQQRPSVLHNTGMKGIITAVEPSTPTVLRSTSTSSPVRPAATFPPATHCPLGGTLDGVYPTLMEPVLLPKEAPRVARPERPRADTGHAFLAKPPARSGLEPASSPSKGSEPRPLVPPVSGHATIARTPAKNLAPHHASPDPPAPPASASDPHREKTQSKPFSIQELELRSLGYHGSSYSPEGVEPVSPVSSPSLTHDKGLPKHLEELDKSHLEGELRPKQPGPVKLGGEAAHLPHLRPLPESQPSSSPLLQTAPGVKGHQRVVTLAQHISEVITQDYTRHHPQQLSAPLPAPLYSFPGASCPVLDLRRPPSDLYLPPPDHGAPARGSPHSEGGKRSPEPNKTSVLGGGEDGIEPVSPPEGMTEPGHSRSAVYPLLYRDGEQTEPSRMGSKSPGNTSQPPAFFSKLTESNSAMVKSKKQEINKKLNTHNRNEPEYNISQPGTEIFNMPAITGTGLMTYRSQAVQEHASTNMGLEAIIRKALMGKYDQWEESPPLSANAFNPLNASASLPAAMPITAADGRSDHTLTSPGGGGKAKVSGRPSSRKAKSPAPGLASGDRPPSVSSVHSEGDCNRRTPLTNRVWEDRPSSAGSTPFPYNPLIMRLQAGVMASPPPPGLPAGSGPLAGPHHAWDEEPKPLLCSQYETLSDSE
Chain of Histone deacetylase 2 (Q92769 whole entry): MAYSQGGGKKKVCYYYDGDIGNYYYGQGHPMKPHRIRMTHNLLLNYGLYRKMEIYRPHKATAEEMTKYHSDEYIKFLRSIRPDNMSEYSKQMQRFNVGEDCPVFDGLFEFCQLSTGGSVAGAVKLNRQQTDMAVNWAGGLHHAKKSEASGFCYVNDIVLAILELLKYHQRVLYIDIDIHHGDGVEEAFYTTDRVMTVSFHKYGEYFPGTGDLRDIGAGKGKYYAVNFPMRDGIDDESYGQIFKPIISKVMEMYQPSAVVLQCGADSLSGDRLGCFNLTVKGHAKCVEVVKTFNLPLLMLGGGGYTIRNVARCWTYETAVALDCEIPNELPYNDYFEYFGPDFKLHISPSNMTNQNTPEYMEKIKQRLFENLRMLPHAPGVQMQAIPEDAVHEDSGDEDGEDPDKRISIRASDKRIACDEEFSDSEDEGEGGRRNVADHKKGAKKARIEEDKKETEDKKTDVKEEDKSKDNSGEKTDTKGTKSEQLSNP
Description for Histone deacetylase 2: Inhibition of recombinant human full length C-terminal His- tagged HDAC2 (1 to 488 residues) expressed in Sf9 insect cells using fluorometric substrate measured after 60 mins by FRET assay

Regarding `C/C=C1\NC(=O)c2csc(n2)CNC(=O)C[C@@H](/C=C/CCSC(=O)CCCCCCC)OC(=O)[C@H](C(C)C)NC1=O`, the IC50 on Histone deacetylase 1 was found to be 3.1 nM; in series [1], 8.9 nM; against Histone deacetylase 2 it was 5.3 nM; on Histone deacetylase 8 it was 3960 nM; in series [2], 1810 nM; in series [3] it was 37 nM. Besides, in the series with MDA-MB-231, the 50% growth inhibitory concentration (GI50) was 11.3 nM. Also, the GI50 at 72 h in [4] is 363 nM. Besides, in [5], the selectivity ratio is 32.

Take `C/C=C1\NC(=O)[C@H]2CSSCC/C=C/[C@H](CC(=O)N[C@H](C(C)C)C(=O)N2)OC(=O)[C@H](C(C)C)NC1=O` [ROMIDEPSIN]: in series [4], the 50% growth inhibitory concentration (GI50) at 72 h was 30.1 nM. In addition, the selectivity ratio in series [5] came out at 3.1.

On to `C/C=C1\NC(=O)c2csc(n2)CNC(=O)C[C@@H](/C=C/CCSSCCCCCCC)OC(=O)[C@H](CCCCNC(=O)CCCCC[N+]2=C(/C=C/C=C/C=C3/N(CC)c4ccc5c(S(=O)(=O)O)cc(S(=O)(=O)O)cc5c4C3(C)C)C(C)(C)c3c2ccc2c(S(=O)(=O)[O-])cc(S(=O)(=O)O)cc32)NC1=O`, for which the Drug uptake entry is “Active” in [6]; 70% in series [7]; “Active” in series [8]; “Active” in series [9]; “Not Active” in series [10]; “Not Active” in series [11]. For the same compound, the Drug uptake entry in series [12] was “Not Active”. Besides, the IC50 at Histone deacetylase 1 stood at 8 nM; in series [2], 70 nM; at Histone deacetylase it was 824 nM. Besides, the Ratio IC50 in the series filed under Homo sapiens is 100. In addition, the Flu intensity is 3.13 10^9/s/cm2 in series [13]; 1.95 10^9/s/cm2 in series [14]; 1.33 10^9/s/cm2 in series [15]; 3.06 10^9/s/cm2 in [16]; 8 10^9/s/cm2 in series [17].

As usually defined, the IC50 is the midpoint of a concentration-inhibition curve. For orientation: GI50 means the concentration that inhibits growth by half.
